What was measured:
Vasopressin V2 receptor = Vasopressin V2 receptor (Homo sapiens, UniProt P30518)
[1] = target: T1, Cholecystokinin receptor type A (Homo sapiens, UniProt P32238)
T1 sequence (P32238 whole entry): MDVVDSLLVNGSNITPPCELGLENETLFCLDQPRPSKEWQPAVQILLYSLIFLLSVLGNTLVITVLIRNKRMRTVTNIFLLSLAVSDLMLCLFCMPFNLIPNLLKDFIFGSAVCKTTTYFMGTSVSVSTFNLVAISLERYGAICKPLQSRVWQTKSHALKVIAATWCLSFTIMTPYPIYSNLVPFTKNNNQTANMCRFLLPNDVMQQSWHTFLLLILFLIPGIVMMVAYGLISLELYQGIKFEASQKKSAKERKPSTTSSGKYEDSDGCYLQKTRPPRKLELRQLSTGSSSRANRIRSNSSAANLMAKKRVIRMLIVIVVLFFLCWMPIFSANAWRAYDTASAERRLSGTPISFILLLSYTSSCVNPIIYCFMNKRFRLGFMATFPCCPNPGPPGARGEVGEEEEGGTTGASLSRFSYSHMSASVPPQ

Melanocortin receptor 3 = Melanocortin receptor 3 (Homo sapiens, UniProt P41968)
[2] = target: T2, 5-hydroxytryptamine receptor 2C (Homo sapiens, UniProt P28335)
T2 sequence (P28335 whole entry): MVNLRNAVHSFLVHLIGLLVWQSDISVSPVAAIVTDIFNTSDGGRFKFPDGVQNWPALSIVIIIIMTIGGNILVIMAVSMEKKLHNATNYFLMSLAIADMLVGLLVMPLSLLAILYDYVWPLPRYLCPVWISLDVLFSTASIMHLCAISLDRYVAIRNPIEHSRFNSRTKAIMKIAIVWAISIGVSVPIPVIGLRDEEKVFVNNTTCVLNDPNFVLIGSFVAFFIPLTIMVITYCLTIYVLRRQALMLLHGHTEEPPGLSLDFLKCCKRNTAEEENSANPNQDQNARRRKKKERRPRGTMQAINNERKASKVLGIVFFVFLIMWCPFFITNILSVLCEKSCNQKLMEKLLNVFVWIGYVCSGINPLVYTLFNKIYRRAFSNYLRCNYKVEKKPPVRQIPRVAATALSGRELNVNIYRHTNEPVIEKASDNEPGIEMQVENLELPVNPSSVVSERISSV

Histamine H3 receptor = Histamine H3 receptor (Homo sapiens, UniProt Q9Y5N1)
[3] = target: Beta-2 adrenergic receptor (Homo sapiens, UniProt P07550)
[4] = target: T3, Neuropeptide Y receptor type 1 (Homo sapiens, UniProt P25929)
T3 sequence (P25929 whole entry): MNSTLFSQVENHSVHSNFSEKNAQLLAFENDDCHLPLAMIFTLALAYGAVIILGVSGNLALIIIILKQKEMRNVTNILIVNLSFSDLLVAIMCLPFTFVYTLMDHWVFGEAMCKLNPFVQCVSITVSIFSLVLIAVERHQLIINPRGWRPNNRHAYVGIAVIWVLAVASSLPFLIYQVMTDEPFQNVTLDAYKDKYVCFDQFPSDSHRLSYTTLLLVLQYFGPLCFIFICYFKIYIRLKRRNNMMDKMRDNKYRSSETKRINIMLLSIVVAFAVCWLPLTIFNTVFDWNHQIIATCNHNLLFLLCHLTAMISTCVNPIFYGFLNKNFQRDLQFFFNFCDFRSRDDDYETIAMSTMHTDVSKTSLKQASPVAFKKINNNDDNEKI

Cannabinoid receptor 1 = Cannabinoid receptor 1 (Homo sapiens, UniProt P21554); format: functional, cell-based
[5] = target: T4, Amine oxidase [flavin-containing] A (Homo sapiens, UniProt P21397); format: functional
T4 sequence (P21397 whole entry): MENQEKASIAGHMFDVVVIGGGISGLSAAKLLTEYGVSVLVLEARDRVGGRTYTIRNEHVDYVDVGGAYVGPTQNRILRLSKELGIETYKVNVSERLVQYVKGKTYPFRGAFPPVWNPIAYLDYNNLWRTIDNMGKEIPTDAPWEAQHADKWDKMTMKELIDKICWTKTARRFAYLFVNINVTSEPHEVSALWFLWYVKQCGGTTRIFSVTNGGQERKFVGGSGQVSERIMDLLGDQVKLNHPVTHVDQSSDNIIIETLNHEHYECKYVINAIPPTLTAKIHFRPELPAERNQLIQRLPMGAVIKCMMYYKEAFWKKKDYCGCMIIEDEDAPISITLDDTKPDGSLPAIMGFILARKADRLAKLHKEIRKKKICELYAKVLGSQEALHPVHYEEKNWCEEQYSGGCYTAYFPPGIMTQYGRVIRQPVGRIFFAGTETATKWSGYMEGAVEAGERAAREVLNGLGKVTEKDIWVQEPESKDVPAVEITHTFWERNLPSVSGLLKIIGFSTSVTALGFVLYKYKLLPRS

[6] = target: Glutamate receptor ionotropic, NMDA 1 (Rattus norvegicus, UniProt P35439)
[7] = target: Sodium-dependent dopamine transporter (Homo sapiens, UniProt Q01959)
[8] = target: T5, Alpha-2A adrenergic receptor (Homo sapiens, UniProt P08913); format: functional, cell-based
T5 sequence (P08913 whole entry): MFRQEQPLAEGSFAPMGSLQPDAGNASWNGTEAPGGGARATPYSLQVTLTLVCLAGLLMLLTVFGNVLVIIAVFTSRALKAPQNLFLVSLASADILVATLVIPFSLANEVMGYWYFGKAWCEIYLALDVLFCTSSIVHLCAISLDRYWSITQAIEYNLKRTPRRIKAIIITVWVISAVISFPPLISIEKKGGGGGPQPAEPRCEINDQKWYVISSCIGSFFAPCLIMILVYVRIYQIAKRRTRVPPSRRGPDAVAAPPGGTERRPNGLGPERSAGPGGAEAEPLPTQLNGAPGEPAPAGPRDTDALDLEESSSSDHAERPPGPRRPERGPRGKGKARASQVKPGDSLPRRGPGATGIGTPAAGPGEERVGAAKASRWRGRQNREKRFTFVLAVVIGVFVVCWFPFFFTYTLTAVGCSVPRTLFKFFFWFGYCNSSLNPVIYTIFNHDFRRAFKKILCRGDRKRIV
Further: assay procedure not described here.

Chain of Beta-2 adrenergic receptor (P07550 whole entry): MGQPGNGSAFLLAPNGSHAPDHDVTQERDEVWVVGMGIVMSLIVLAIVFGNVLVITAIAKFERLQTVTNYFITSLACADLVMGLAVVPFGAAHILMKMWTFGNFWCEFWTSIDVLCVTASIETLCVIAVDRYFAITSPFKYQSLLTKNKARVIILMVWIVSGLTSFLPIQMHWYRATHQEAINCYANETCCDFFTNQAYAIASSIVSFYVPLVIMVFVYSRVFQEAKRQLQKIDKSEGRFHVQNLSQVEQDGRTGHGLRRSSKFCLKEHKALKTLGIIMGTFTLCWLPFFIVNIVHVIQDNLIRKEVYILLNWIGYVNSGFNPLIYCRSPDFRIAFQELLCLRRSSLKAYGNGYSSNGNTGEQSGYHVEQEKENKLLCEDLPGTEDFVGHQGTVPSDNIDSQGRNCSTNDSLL
Chain of Vasopressin V2 receptor (P30518 whole entry): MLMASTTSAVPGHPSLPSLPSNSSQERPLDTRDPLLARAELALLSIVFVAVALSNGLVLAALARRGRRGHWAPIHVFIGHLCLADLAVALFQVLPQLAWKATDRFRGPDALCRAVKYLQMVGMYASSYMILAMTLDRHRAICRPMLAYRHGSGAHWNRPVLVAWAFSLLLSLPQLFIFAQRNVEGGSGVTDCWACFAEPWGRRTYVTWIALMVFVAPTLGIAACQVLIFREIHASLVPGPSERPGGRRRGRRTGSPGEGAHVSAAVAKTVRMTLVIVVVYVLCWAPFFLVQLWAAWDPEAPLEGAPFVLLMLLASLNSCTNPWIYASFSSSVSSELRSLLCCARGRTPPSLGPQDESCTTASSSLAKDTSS
Chain of Melanocortin receptor 3 (P41968 whole entry): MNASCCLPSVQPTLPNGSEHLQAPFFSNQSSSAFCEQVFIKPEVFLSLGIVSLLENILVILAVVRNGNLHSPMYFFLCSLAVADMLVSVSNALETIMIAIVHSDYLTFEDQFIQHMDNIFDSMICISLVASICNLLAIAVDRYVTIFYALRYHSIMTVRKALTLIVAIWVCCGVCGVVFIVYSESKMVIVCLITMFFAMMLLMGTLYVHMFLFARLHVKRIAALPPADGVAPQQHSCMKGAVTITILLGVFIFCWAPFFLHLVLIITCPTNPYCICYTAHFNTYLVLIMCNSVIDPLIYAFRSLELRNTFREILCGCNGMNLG
Chain of Sodium-dependent dopamine transporter (Q01959 whole entry): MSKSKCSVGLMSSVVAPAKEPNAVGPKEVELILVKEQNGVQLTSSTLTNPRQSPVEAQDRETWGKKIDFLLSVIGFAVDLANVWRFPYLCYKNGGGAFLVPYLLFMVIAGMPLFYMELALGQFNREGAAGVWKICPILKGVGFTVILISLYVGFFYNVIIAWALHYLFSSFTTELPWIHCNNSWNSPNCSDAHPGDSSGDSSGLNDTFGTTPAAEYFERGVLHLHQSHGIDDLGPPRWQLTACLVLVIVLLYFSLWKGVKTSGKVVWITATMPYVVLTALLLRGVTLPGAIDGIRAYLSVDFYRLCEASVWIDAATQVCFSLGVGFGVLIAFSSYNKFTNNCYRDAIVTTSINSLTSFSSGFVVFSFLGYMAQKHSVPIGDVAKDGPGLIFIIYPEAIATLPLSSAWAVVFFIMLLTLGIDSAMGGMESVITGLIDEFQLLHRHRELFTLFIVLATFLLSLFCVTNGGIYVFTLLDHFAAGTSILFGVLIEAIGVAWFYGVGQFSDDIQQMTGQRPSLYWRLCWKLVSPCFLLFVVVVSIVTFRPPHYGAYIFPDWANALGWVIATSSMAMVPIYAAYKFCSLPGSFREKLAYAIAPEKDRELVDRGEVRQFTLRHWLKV
Chain of Cannabinoid receptor 1 (P21554 whole entry): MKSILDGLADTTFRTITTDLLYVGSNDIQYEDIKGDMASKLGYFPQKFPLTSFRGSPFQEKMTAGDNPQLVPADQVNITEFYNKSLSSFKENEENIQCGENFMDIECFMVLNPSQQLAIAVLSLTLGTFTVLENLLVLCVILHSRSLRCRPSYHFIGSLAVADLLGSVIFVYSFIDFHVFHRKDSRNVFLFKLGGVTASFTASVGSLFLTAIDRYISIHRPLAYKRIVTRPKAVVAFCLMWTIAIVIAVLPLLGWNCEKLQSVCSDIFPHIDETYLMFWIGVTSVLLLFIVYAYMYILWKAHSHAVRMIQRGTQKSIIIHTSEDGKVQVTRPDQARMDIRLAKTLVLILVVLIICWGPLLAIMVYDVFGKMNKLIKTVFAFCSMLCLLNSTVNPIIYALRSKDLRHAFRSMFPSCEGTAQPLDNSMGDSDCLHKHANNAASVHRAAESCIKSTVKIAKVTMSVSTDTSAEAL
Chain of Histamine H3 receptor (Q9Y5N1 whole entry): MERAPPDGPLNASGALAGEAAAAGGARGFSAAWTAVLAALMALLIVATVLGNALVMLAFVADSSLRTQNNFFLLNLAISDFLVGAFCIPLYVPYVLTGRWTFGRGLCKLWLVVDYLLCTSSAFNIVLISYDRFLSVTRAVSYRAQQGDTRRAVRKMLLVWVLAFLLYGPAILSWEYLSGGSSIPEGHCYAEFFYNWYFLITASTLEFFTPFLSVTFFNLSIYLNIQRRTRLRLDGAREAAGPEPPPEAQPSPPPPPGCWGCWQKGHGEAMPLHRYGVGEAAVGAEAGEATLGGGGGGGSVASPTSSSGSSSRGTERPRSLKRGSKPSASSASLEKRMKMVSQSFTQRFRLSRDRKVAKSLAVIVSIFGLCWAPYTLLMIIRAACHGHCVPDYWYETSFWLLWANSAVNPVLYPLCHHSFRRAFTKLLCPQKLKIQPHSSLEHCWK

Structure (SMILES)	AC50 (Vasopressin V2 receptor) [µM]	AC50 [1] [µM]	AC50 (Melanocortin receptor 3) [µM]	AC50 [2] [µM]	AC50 (Histamine H3 receptor) [µM]	AC50 [3] [µM]	AC50 [4] [µM]	AC50 (Cannabinoid receptor 1) [µM]	AC50 [5] [µM]	AC50 [6] [µM]	AC50 [7] [µM]	AC50 [8] [µM]
COc1cc2c(N)nc(N3CCN(C(=O)OCC(C)(C)O)CC3)nc2c(OC)c1OC [TRIMAZOSIN]	> 30	> 30	> 30	> 30	> 30	> 30	> 30	> 30	> 30	> 30	> 30	> 30
COc1ccccc1OCCNCC(O)c1ccc(C)c(S(N)(=O)=O)c1 (stereo not given) [AMOSULALOL]	> 30	> 30	> 30	> 30	> 30	0.1	> 30	> 30	> 30	> 30	> 30	> 30
CC(=O)OCC(=O)[C@@]12N=C(C)O[C@@H]1C[C@H]1[C@@H]3CCC4=CC(=O)C=C[C@]4(C)[C@H]3[C@@H](O)C[C@@]12C [DEFLAZACORT]	> 30	> 30	> 30	> 30	> 30	> 30	> 30	> 30	> 30	> 30	> 30	> 30
CC(C)(C)C(=O)Oc1ccc(S(=O)(=O)Nc2ccccc2C(=O)NCC(=O)O)cc1	> 30	> 30	> 30	> 30	> 30	> 30	> 30	> 30	> 30	> 30	> 30	> 30
CN1C(=O)OC(C)(C)C1=O [TRIMETHADIONE]	> 10	> 10	> 10	> 30	> 10	> 10	> 10	> 30	> 10	> 10	> 10	> 10
COc1ccc2c3c1O[C@H]1[C@@H](O)C=C[C@H]4[C@@H](C2)N(C)CC[C@@]341 [CODEINE]	> 30	> 30	> 30	> 30	> 10	> 10	> 30	> 30	> 10	> 10	> 30	> 10
Cc1ccc(-n2nccn2)c(C(=O)N2CCN(c3nc4cc(Cl)ccc4o3)CC[C@H]2C)c1 [SUVOREXANT]	> 30	> 30	> 30	> 30	> 30	> 30	> 30	> 30	> 30	> 30	> 10	> 30
CCC(C(=O)O)c1ccc(N2Cc3ccccc3C2=O)cc1 (stereo not given) [INDOBUFEN]	> 30	> 30	> 30	> 30	> 30	> 30	> 30	> 30	> 30	> 30	> 30	> 30
Cn1c(=O)c2c(ncn2CC2OCCO2)n(C)c1=O [DOXOFYLLINE]	> 10	> 30	> 30	> 30	> 30	> 30	> 30	> 30	> 30	> 30	> 30	> 30
COc1ccc(-c2ccc3cc(C(=O)O)ccc3c2)cc1C12CC3CC(CC(C3)C1)C2	> 30	> 30	> 30	> 30	> 30	> 30	> 30	> 30	> 30	> 30	> 30	> 30
C=CCN1CCCC1CNC(=O)c1cc(S(N)(=O)=O)cc(OC)c1OC (stereo not given) [VERALIPRIDE]	> 30	> 30	> 30	> 30	23	> 30	> 30	> 30	> 30	> 30	> 30	> 30
CN1CCC(=C2c3ccccc3CCc3sccc32)CC1 [PIZOTYLINE]	> 30	> 30	> 30	0.017	> 10	5.8	> 30	> 30	> 10	> 10	13.4	> 30
CC=CC(=O)N(CC)c1ccccc1C	> 10	> 10	> 10	> 30	> 10	> 10	> 10	> 30	> 10	> 10	> 10	> 10
CCOC(=O)OC(C)OC1=C(C(=O)Nc2ccccn2)N(C)S(=O)(=O)c2ccccc21 (stereo not given) [AMPIROXICAM]	> 30	> 30	> 30	> 30	> 30	> 30	> 30	> 30	> 30	> 30	> 30	> 30
COC(=O)C1=C(C)NC(C)=C(C(=O)OC2CCCN(Cc3ccccc3)C2)C1c1cccc([N+](=O)[O-])c1 (stereo not given) [BENIDIPINE]	> 30	> 30	> 30	> 30	> 30	> 30	> 30	> 30	> 30	> 30	12	> 30
